Reference: PubChem BioAssay (NCI)
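The concentration for 50% growth inhibition is given as GI50. Definition used: TGI = concentration required for complete inhibition of growth.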

Legend:
Test in all cases: inhibition of tumour cell growth, NCI panel, 384-well format
[1] = tested on: HCT-15 colon
[2] = tested on: U251 glioblastoma
[3] = tested on: UACC-62 melanoma
[4] = tested on: LOX IMVI melanoma
[5] = tested on: RPMI-8226 leukemia
[6] = tested on: COLO 205 colon
[7] = tested on: HL-60(TB) leukemia
[8] = tested on: KM12 colon
[9] = tested on: CCRF-CEM leukemia
[10] = tested on: RXF 393 renal
[11] = tested on: HOP-62 NSCLC
[12] = tested on: NCI-H522 lung
[13] = tested on: OVCAR-3 ovarian
[14] = tested on: SF-539 CNS
[15] = tested on: MALME-3M melanoma
[16] = tested on: NCI-H23 lung
[17] = tested on: SR leukemia
[18] = tested on: IGROV1 ovarian
[19] = tested on: HOP-92 NSCLC
[20] = tested on: OVCAR-5 ovarian
[21] = tested on: ACHN renal
[22] = tested on: TK-10 renal
[23] = tested on: UACC-257 melanoma
[24] = tested on: SK-MEL-5 melanoma

Compound `C1=C/COCc2cc(ccc2OCCN2CCCC2)Nc2nccc(n2)-c2cccc(c2)COC/1` has a TGI [1] of 2.31 µM, a GI50 [2] of 1.54 µM and a TGI [2] of 3.29 µM. It also gave a GI50 [3] of 0.685 µM, a TGI [3] of 1.92 µM and a GI50 [4] of 0.842 µM. The TGI [4] was 2.08 µM, the GI50 [5] was 1.66 µM and the TGI [5] was 3.03 µM. The GI50 [6] was 1.09 µM, the TGI [6] was 2.47 µM and the GI50 [7] was 0.251 µM. It also gave a TGI [7] of 0.684 µM, a GI50 [8] of 0.321 µM and a TGI [8] of 1.33 µM. For the same compound, the GI50 [9] was 0.705 µM, the TGI [9] was 1.79 µM and the GI50 [10] was 1.21 µM. The TGI [10] was 2.47 µM, the GI50 [11] was 1.4 µM and the TGI [11] was 3.03 µM. The GI50 [12] was 1.45 µM, the TGI [12] was 2.78 µM and the GI50 [13] was 0.988 µM. It also gave a TGI [13] of 2.27 µM, a GI50 [14] of 1.7 µM and a TGI [14] of 3.08 µM. It also gave a GI50 [15] of 0.829 µM, a TGI [15] of 2.02 µM and a GI50 [16] of 0.945 µM. The TGI [16] was 2.25 µM, the GI50 [17] was 0.152 µM and the TGI [17] was 0.303 µM. The GI50 [18] was 0.811 µM, the TGI [18] was 2.94 µM and the GI50 [19] was 1.6 µM. It also gave a TGI [19] of 3.91 µM, a GI50 [20] of 0.778 µM and a TGI [20] of 2.64 µM. The GI50 [21] was 0.87 µM, the TGI [21] was 4.43 µM and the GI50 [22] was 1.33 µM. The TGI [22] was 3.56 µM, the GI50 [23] was 0.649 µM and the TGI [23] was 1.41 µM. The GI50 [24] was 1.45 µM and the TGI [24] was 2.77 µM.
